The text below walks through data of patent US9023789B2, “Amylin analogs and pharmaceutical compositions thereof” (Novo Nordisk A/S, priority 2012, dated 2015).

As usually defined, the EC50 is the concentration at which the effect is half-maximal. Usually IC50 stands for the concentration needed to halve the response being measured.

Numbered stars: 1 amine (or outer) side, 2 acyl side, 3 side chain; on linkers, the order of the positions; unused ones are H or OH. Bridge positions count the residues as written; N and C are the ends. Side chains are listed from the residue outwards. Peptide text beside a SMILES is read from it. * marks the point of attachment. C20 diacid = O=C(O)CCCCCCCCCCCCCCCCCCC(=O)*; γGlu = O=C(O)[C@H](CCC(=O)[*:2])N[*:1]; AEEA = NCCOCCOCC(=O)O

Assay [1] addresses T1, human amylin 3(a) receptor (human calcitonin receptor + RAMP-3) in BHK570 cells (Homo sapiens, UniProt O60896+P30988).
T1 construct: expressed in transfected cells
Kind of assay: ASSAY (II)a functional assay, human amylin receptor (CRE luciferase). In kind it is cell-based. Particulars: for EC50: human amylin receptor functional potency, assay (II), read-out: hAmylin-R funct. EC50. The procedure, abridged:
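Readout is luminescence from a cAMP-responsive CRE-luc reporter, developed with LucLite for 30 min at room temperature. Cells were treated for 3 h at 37 °C in 10% FBS/DMEM buffered with 10 mM Hepes (pH 7.4).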

The target of assay [2] is T2, human amylin receptor (membranes from Amylin 3(a)/CRE-luc cells) (Homo sapiens, UniProt O60896+P30988).
T2 construct: expressed in transfected cells
T2 sequence (P30988 25-474): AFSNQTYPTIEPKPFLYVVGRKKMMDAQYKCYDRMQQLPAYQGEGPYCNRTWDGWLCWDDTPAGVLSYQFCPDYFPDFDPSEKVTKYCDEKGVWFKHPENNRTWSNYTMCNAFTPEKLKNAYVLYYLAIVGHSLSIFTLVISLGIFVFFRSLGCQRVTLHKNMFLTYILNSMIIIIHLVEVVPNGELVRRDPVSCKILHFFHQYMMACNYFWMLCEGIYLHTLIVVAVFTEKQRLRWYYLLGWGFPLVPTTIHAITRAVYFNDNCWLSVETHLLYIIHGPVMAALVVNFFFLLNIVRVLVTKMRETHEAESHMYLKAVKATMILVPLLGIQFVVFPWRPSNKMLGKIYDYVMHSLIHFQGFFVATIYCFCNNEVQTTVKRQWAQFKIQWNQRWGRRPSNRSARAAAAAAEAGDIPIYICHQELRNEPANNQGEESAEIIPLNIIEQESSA
T2 sequence (O60896 24-148 partner): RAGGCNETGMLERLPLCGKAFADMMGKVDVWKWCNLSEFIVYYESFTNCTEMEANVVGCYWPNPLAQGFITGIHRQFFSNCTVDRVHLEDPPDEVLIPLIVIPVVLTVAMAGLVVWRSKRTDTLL
The assay is described as follows: ASSAY (V) binding to the human amylin receptor (SPA, 125I-rat amylin).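 For all read-outs here: competition binding of cell membranes (35 ng/µL) mixed with SPA beads in 384-well plates at 40 µL total volume, read by scintillation counting.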 As to conditions: for IC50: Table 4, read-out: hAmylin-R bind IC50.

Another assay addresses T3, rat calcitonin receptor (Rattus norvegicus, UniProt P32214).
T3 construct: expressed in transfected cells; host or cells: BHK tk'ts 13 (transient, FuGENE 6), membranes
T3 sequence (P32214 25-479 isoform P32214-2 limits assumed): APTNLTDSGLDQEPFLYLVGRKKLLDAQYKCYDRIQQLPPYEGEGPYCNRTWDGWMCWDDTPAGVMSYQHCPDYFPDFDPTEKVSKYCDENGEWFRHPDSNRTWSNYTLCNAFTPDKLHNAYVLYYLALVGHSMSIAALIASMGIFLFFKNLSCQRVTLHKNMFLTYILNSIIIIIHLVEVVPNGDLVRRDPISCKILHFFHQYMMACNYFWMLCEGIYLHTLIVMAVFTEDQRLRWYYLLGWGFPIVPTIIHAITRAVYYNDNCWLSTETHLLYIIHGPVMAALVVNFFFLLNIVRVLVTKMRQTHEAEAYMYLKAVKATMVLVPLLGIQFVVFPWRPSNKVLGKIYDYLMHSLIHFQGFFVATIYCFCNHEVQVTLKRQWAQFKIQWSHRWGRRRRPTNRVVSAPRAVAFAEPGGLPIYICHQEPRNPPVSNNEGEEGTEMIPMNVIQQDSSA
The assay is described as follows: ASSAY (VIII) binding to the rat calcitonin receptor. As to conditions: Table 7, read-out: rCTR bind IC50. The procedure, abridged:
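BHK tk′ts 13 cells, transient rat calcitonin receptor transfection; DMEM + 10% FBS; harvest ~48 h post-transfection; membrane prep.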

Setting [3] is: hCTR funct. EC50 divided by hAmylin-R funct. EC50.
Where [4] appears, read: hCTR funct. EC50 over hAmylin-R funct. EC50.
Setting [5] is: human functional selectivity: hCTR funct. EC50 / hAmylin-R funct. EC50.
Setting [6] is: Table 5, selectivity, hCTR bind IC50 / hAmylin-R bind IC50.
The mark [7] stands for this setting: Table 5a, selectivity, hCTR bind IC50 / hAmylin-R bind IC50.
The mark [8] stands for this setting: Table 5b, selectivity, hCTR bind IC50 / hAmylin-R bind IC50.
Setting [9] is: Table 5c, selectivity, hCTR bind IC50 / hAmylin-R bind IC50.
Setting [10] is: Table 7, human binding selectivity, included for comparison.
The mark [11] stands for this setting: Table 7a (preferred compounds), human binding selectivity, included for comparison.
Setting [12] is: ratio of human calcitonin receptor binding IC50 to human amylin receptor binding IC50.

Regarding `CC[C@H](C)[C@H](NC(=O)[C@H](C)NC(=O)CNC(=O)[C@H](Cc1ccccc1)NC(=O)[C@H](CC(N)=O)NC(=O)[C@@H]1CCCN1C(=O)[C@H](CO)NC(=O)[C@H](CO)NC(=O)[C@H](Cc1c[nH]cn1)NC(=O)[C@H](CCCNC(=N)N)NC(=O)[C@H](CC(C)C)NC(=O)[C@H](Cc1ccccc1)NC(=O)[C@H](CC(N)=O)NC(=O)[C@H](C)NC(=O)[C@H](CC(C)C)NC(=O)[C@H](CCCNC(=N)N)NC(=O)[C@H](CCC(N)=O)NC(=O)[C@@H](NC(=O)[C@H](C)NC(=O)[C@@H]1CSSC[C@H](NC(=O)[C@@H](N)CCCCNC(=O)COCCOCCNC(=O)CC[C@H](NC(=O)CCCCCCCCCCCCCCCCCCC(=O)O)C(=O)O)C(=O)N[C@@H](CC(N)=O)C(=O)N[C@@H]([C@@H](C)O)C(=O)N[C@@H](C)C(=O)N[C@@H]([C@@H](C)O)C(=O)N1)[C@@H](C)O)C(=O)N1CCC[C@H]1C(=O)N[C@@H](CO)C(=O)N[C@@H](CO)C(=O)N[C@H](C(=O)N[C@@H](CC(N)=O)C(=O)N[C@H](C(=O)NCC(=O)N[C@@H](Cc1c[nH]cn1)C(=O)N[C@@H](CC(N)=O)C(=O)N[C@H](C(=O)N[C@@H](Cc1ccc(O)cc1)C(N)=O)[C@@H](C)O)C(C)C)[C@@H](C)O` [Example 76] (H-K([AEEA-γGlu-C20 diacid])CNTATCATQRLANFLRHSSPNFGAIPSSTNVGHNTY-NH2; disulfide 2-7; N-terminus assumed), the “Ratio hCT/hAmylin funct.” value in assay [1] (setting [3]), in assay [1] (setting [4]) and in assay [1] (setting [5]) was 24.8 in each case. For the same compound, in assay [1], the EC50 worked out at 0.297 nM. The IC50 in assay [2] amounted to 0.215 nM; on rat calcitonin receptor, 38.9 nM. Moreover, the “Ratio hCT/hAmylin binding” value in assay [2] (setting [6]), in assay [2] (setting [7]), in assay [2] (setting [8]), in assay [2] (setting [9]), in assay [2] (setting [10]) and in assay [2] (setting [11]) was 80.0 each time. For the same compound, the “Ratio hCT/hAmylin binding” value in assay [2] (setting [12]) is reported as 80.0.

Consider `CC[C@H](C)[C@H](NC(=O)[C@H](C)NC(=O)CNC(=O)[C@H](Cc1ccccc1)NC(=O)[C@H](CC(N)=O)NC(=O)[C@@H]1CCCN1C(=O)[C@H](CO)NC(=O)[C@H](CO)NC(=O)[C@H](Cc1c[nH]cn1)NC(=O)[C@H](CCCNC(=N)N)NC(=O)[C@H](CC(C)C)NC(=O)[C@H](Cc1ccccc1)NC(=O)[C@H](CCCNC(=N)N)NC(=O)[C@H](C)NC(=O)[C@H](CC(C)C)NC(=O)[C@H](CCCNC(=N)N)NC(=O)[C@H](CCC(N)=O)NC(=O)[C@@H](NC(=O)[C@H](C)NC(=O)[C@@H]1CSSC[C@H](NC(=O)[C@@H](N)CCCCNC(=O)COCCOCCNC(=O)CC[C@H](NC(=O)CCCCCCCCCCCCCCCCCCC(=O)O)C(=O)O)C(=O)N[C@@H](CC(N)=O)C(=O)N[C@@H]([C@@H](C)O)C(=O)N[C@@H](C)C(=O)N[C@@H]([C@@H](C)O)C(=O)N1)[C@@H](C)O)C(=O)N1CCC[C@H]1C(=O)N[C@@H](CO)C(=O)N[C@@H](CO)C(=O)N[C@H](C(=O)N1CCC[C@H]1C(=O)N[C@H](C(=O)NCC(=O)N[C@@H](CO)C(=O)N[C@@H](CC(N)=O)C(=O)N[C@H](C(=O)N[C@@H](Cc1ccc(O)cc1)C(N)=O)[C@@H](C)O)C(C)C)[C@@H](C)O` [Example 64] (H-K([AEEA-γGlu-C20 diacid])CNTATCATQRLARFLRHSSPNFGAIPSSTPVGSNTY-NH2; disulfide 2-7; N-terminus assumed), for which the “Ratio hCT/hAmylin funct.” value in assay [1] (setting [3]), in assay [1] (setting [4]) and in assay [1] (setting [5]) was 60.7 each time. In assay [1], the EC50 amounted to 0.378 nM. Also, the concentration for half-maximal inhibition (IC50) in assay [2] turned out to be 0.444 nM; at rat calcitonin receptor, 128 nM. In addition, the “Ratio hCT/hAmylin binding” value in assay [2] (setting [6]), in assay [2] (setting [7]), in assay [2] (setting [8]), in assay [2] (setting [9]), in assay [2] (setting [10]) and in assay [2] (setting [11]) was 126.1 throughout. Further, the “Ratio hCT/hAmylin binding” value in assay [2] (setting [12]) was determined as 126.1.

With `CC[C@H](C)[C@H](NC(=O)[C@H](C)NC(=O)CNC(=O)[C@H](Cc1ccccc1)NC(=O)[C@H](CC(N)=O)NC(=O)[C@@H]1CCCN1C(=O)[C@H](CO)NC(=O)[C@H](CO)NC(=O)[C@H](Cc1c[nH]cn1)NC(=O)[C@H](CCCNC(=N)N)NC(=O)[C@H](CC(C)C)NC(=O)[C@H](Cc1ccccc1)NC(=O)[C@H](CCC(=O)O)NC(=O)[C@H](C)NC(=O)[C@H](CC(C)C)NC(=O)[C@H](CCCNC(=N)N)NC(=O)[C@H](CCC(N)=O)NC(=O)[C@@H](NC(=O)[C@H](C)NC(=O)[C@@H]1CSSC[C@H](NC(=O)[C@H](CCCCN)NC(=O)COCCOCCNC(=O)COCCOCCNC(=O)CC[C@H](NC(=O)CCCCCCCCCCCCCCCCCCC(=O)O)C(=O)O)C(=O)N[C@@H](CC(N)=O)C(=O)N[C@@H]([C@@H](C)O)C(=O)N[C@@H](C)C(=O)N[C@@H]([C@@H](C)O)C(=O)N1)[C@@H](C)O)C(=O)N1CCC[C@H]1C(=O)N[C@@H](CO)C(=O)N[C@@H](CO)C(=O)N[C@H](C(=O)N[C@@H](CC(N)=O)C(=O)N[C@H](C(=O)NCC(=O)N[C@@H](CO)C(=O)N[C@@H](CC(N)=O)C(=O)N[C@H](C(=O)N[C@@H](Cc1ccc(O)cc1)C(N)=O)[C@@H](C)O)C(C)C)[C@@H](C)O` [Example 19], the “Ratio hCT/hAmylin funct.” value in assay [1] (setting [3]), in assay [1] (setting [4]) and in assay [1] (setting [5]) was 17.4 each time. In addition, the “Ratio hCT/hAmylin binding” value in assay [2] (setting [6]), in assay [2] (setting [7]), in assay [2] (setting [8]), in assay [2] (setting [9]), in assay [2] (setting [10]) and in assay [2] (setting [11]) was 36.7 throughout. For the same compound, the “Ratio hCT/hAmylin binding” value in assay [2] (setting [12]) is 36.7. Moreover, on rat calcitonin receptor, the IC50 was found to be 95.6 nM.

On to `CC[C@H](C)[C@H](NC(=O)[C@H](C)NC(=O)CNC(=O)[C@H](Cc1ccccc1)NC(=O)[C@H](CC(N)=O)NC(=O)[C@@H]1CCCN1C(=O)[C@H](CO)NC(=O)[C@H](CO)NC(=O)[C@H](Cc1c[nH]cn1)NC(=O)[C@H](CCCNC(=N)N)NC(=O)[C@H](CC(C)C)NC(=O)[C@H](Cc1ccccc1)NC(=O)[C@H](CCC(=O)O)NC(=O)[C@H](C)NC(=O)[C@H](CC(C)C)NC(=O)[C@H](CCCNC(=N)N)NC(=O)[C@H](CCC(N)=O)NC(=O)[C@@H](NC(=O)[C@H](C)NC(=O)[C@@H]1CSSC[C@H](NC(=O)[C@@H](N)CCCCNC(=O)CC[C@H](NC(=O)CCCCCCCCCCCCCCCCCCC(=O)O)C(=O)O)C(=O)N[C@@H](CC(N)=O)C(=O)N[C@@H]([C@@H](C)O)C(=O)N[C@@H](C)C(=O)N[C@@H]([C@@H](C)O)C(=O)N1)[C@@H](C)O)C(=O)N1CCC[C@H]1C(=O)N[C@@H](CO)C(=O)N[C@@H](CO)C(=O)N[C@H](C(=O)N[C@@H](CC(N)=O)C(=O)N[C@H](C(=O)NCC(=O)N[C@@H](Cc1c[nH]cn1)C(=O)N[C@@H](CCC(=O)O)C(=O)N[C@H](C(=O)N[C@@H](Cc1ccc(O)cc1)C(N)=O)[C@@H](C)O)C(C)C)[C@@H](C)O` [Example 107] (H-K([γGlu-C20 diacid])CNTATCATQRLAEFLRHSSPNFGAIPSSTNVGHETY-NH2; disulfide 2-7 (inferred)), for which the “Ratio hCT/hAmylin funct.” value in assay [1] (setting [3]), in assay [1] (setting [4]) and in assay [1] (setting [5]) was 6.3 each time. Also, in assay [1], the EC50 came to 0.405 nM. The figures for the IC50 (in assay [2]; at rat calcitonin receptor) were 0.387 nM and 33.1 nM, respectively. Further, the “Ratio hCT/hAmylin binding” value in assay [2] (setting [6]), in assay [2] (setting [7]), in assay [2] (setting [10]), in assay [2] (setting [11]) and in assay [2] (setting [12]) was 11.1 throughout.
